Laboratory results reported in patent US8088806B2 (Achillion Pharmaceuticals, Inc., priority 2005, dated 2012).

system: HCV replicon; assay: Replicon based assay of HCV replication inhibition (NPT ELISA); type: cell-based, Hepatitis C virus; conditions: Hepatitis C virus, replicon based assay of HCV replication inhibition; Table II; read-out: Activity
Outline: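 NPT (neomycin phosphotransferase) content, proportional to replicon replication, quantified by capture ELISA on day four. Before that, replicon-bearing Huh-7 cells in G418-free screening medium were exposed three days at 37° C to compound, typically six doses from 10 to 0.03 micromolar, with equal DMSO across wells.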

| Compound | EC50 [µM] |
| --- | --- |
| CC(C)COc1ccc(Nc2nc(-c3ccc4c(c3)NC(=O)CO4)cs2)cc1C(F)(F)F [compound 252, 6-(2-(4-isobutoxy-3-(trifluoromethyl)phenyl-amino)thiazol-4-yl)-2H-benzo[b][1,4]oxazin-3(4H)-one] | < 1 |
| O=C1COc2ccc(-c3csc(Nc4ccc(OCC5CC5)c(C(F)(F)F)c4)n3)cc2N1 [compound 253, 6-(2-(4-(cyclopropylmethoxy)-3-(trifluoromthyl)phenyl-amino)thiazol-4-yl)-2H-benzo[b][1,4]oxazin-3(4H)-one] | 1 to 10 |
| NC(=O)c1cc(-c2csc(Nc3ccc(OC4CCCC4)c(C(F)(F)F)c3)n2)ccc1O [compound 254, 5-(2-(4-(cyclopentyloxy)-3-(trifluoromethyl)phenyl-amino)thiazol-4-yl)-2-hydroxybenzamide] | < 1 |
| CC(C)COc1ccc(Nc2nc(-c3ccc(O)c(C(N)=O)c3)cs2)cc1C(F)(F)F [compound 255, 2-hydroxy-5-(2-(4-isobutoxy-3-(trifluoromethyl)phenyl-amino)thiazol-4-yl)benzamide] | < 1 |
| NC(=O)c1cc(-c2csc(Nc3ccc(OCC4CC4)c(C(F)(F)F)c3)n2)ccc1O [compound 256, 5-(2-(4-(cyclopropylmethoxy)-3-(trifluoromethyl)phenyl-amino)thiazol-4-yl)-2-hydroxybenzamide] | < 1 |
| Fc1ccc(-c2csc(Nc3ccc(OC4CCCC4)c(C(F)(F)F)c3)n2)cc1F [compound 257, N-(4-(cyclopentyloxy)-3-(trifluoromethyl)phenyl)-4-(3,4-difluorophenyl)thiazol-2-amine] | < 1 |
| Cc1sc(Nc2ccc(OCC3CC3)c(C(F)(F)F)c2)nc1-c1ccc(CC(=O)O)cc1 [compound 258, 2-(4-(2-(4-(cyclopropylmethoxy)-3-(trifluoromethyl)phenyl-amino)-5-methylthiazol-4-yl)phenyl)acetic acid] | < 1 |
| CCCCCOc1ccc(Nc2nc(-c3ccc(C(=O)NC)nc3)cs2)cc1C(F)(F)F [compound 259, N-methyl-5-(2-(4-(pentyloxy)-3-(trifluoromethyl)phenyl-amino)thiazol-4-yl)picolinamide] | < 1 |
| CCCCCOc1ccc(Nc2nc(CNCc3cccnc3)cs2)cc1C(F)(F)F [compound 260, N-(4-(pentyloxy)-3-(trifluoromethyl)phenyl)-4-((pyridin-3-ylmethylamino)methyl)thia-zol-2-amine] | < 1 |
| CCCCCOc1ccc(Nc2nc(CNc3ccc(Cl)c(Cl)c3)cs2)cc1C(F)(F)F [compound 261] | 1 to 10 |
| CCCCCOc1ccc(Nc2nc(-c3csc(N)n3)cs2)cc1C(F)(F)F [compound 262, 4-(2-aminothiazol-4-yl)-N-(4-(pentyloxy)-3-(trifluoromethyl)phenyl)thia-zol-2-amine] | < 1 |
| CCCCCOc1ccc(Nc2nc(-c3cn4cccnc4n3)cs2)cc1C(F)(F)F [compound 263, 4-(imidazo[1,2-a]pyrimidin-2-yl)-N-(4-(pentyloxy)-3-(trifluoromethyl)phenyl)thia-zol-2-amine] | < 1 |
| CCCCCOc1ccc(Nc2nc(-c3ccc(CO)nc3)cs2)cc1C(F)(F)F [compound 264, (5-(2-(4-(pentyloxy)-3-(trifluoromethyl)phenyl-amino)thiazol-4-yl)pyridin-2-yl)methanol] | < 1 |
| CCCCCOc1ccc(Nc2nc(CN3CCN(C(=O)OC(C)(C)C)CC3)cs2)cc1C(F)(F)F [compound 265, tert-butyl 4-((2-(4-(pentyloxy)-3-(trifluoromethyl)phenyl-amino)thiazol-4-yl)methyl)piperazine-1-carboxylate] | < 1 |
| CCCCCOc1ccc(Nc2nc(CN3CCC(N(C)C(=O)OC(C)(C)C)C3)cs2)cc1C(F)(F)F (stereo not drawn) [compound 266, tert-butyl methyl(1-((2-(4-(pentyloxy)-3-(trifluoromethyl)phenyl-amino)thiazol-4-yl)methyl)pyrrolidin-3-yl)carbamate] | < 1 |
| CCCCCOc1ccc(Nc2nc(CN3CCC(C(N)=O)CC3)cs2)cc1C(F)(F)F [compound 267, 1-((2-(4-(pentyloxy)-3-(trifluoromethyl)phenyl-amino)thiazol-4-yl)methyl)piperidine-4-carboxamide] | < 1 |
| CCCCCOc1ccc(Nc2nc(CN3CCC[C@H]3C(=O)O)cs2)cc1C(F)(F)F [compound 268, (S)-1-((2-(4-(pentyloxy)-3-(trifluoromethyl)phenyl-amino)thiazol-4-yl)methyl)pyrrolidine-2-carboxylic acid] | < 1 |
| CCCCCOc1ccc(Nc2nc(CN3CCC(O)CC3)cs2)cc1C(F)(F)F [compound 272, 1-((2-(4-(pentyloxy)-3-(trifluoromethyl)phenyl-amino)thiazol-4-yl)methyl)piperidin-4-ol] | < 1 |
| CCCCCOc1ccc(Nc2nc(CN3CCC(CO)CC3)cs2)cc1C(F)(F)F [compound 273, (1-((2-(4-(pentyloxy)-3-(trifluoromethyl)phenyl-amino)thiazol-4-yl)methyl)piperidin-4-yl)methanol] | < 1 |
| CCCCCOc1ccc(Nc2nc(CN3CCC(C(=O)O)CC3)cs2)cc1C(F)(F)F [compound 274, 1-((2-(4-(pentyloxy)-3-(trifluoromethyl)phenyl-amino)thiazol-4-yl)methyl)piperidine-4-carboxylic acid] | < 1 |
| CCCCCOc1ccc(Nc2nc(CN3CCCC(C(=O)O)C3)cs2)cc1C(F)(F)F (stereo not drawn) [compound 275, 1-((2-(4-(pentyloxy)-3-(trifluoromethyl)phenyl-amino)thiazol-4-yl)methyl)piperidin-3-carboxylic acid] | < 1 |
| CCCCCOc1ccc(Nc2nc(CN3CCCC(C)C3)cs2)cc1C(F)(F)F (stereo not drawn) [compound 276, 4-((3-methylpiperidin-1-yl)methyl)-N-(4-(pentyloxy)-3-(trifluoromethyl)phenyl)thia-zol-2-amine] | < 1 |
| CCCCCOc1ccc(Nc2nc(CN3C(C)CCCC3C)cs2)cc1C(F)(F)F (stereo not drawn) [compound 277, 4-((2,6-dimethylpiperidin-1-yl)methyl)-N-(4-(pentyloxy)-3-(trifluoromthyl)phenyl)thia-zol-2-amine] | < 1 |
| CCCCCOc1ccc(Nc2nc(CN3CCC[C@@H]3C(=O)O)cs2)cc1C(F)(F)F [compound 278, (R)-1-((2-(4-(pentyloxy)-3-(trifluoromethyl)phenyl-amino)thiazol-4-yl)methyl)pyrrolidine-2-carboxylic acid] | < 1 |
| CCCCCOc1ccc(Nc2nc(CN3CCN(C(=O)OC(C)(C)C)CC3)cs2)cc1F [compound 279, tert-butyl 4-((2-(3-fluoro-4-(pentyloxy)phenylamino)thia-zol-4-yl)methyl)piperiazine-1-carboxylate] | 1 to 10 |
| CCCCCOc1ccc(Nc2nc(CN3CCC(N(C)C(=O)OC(C)(C)C)C3)cs2)cc1F (stereo not drawn) [compound 280, tert-butyl 1-((2-(3-fluoro-4-(pentyloxy)phenylamino)thia-zol-4-yl)m,ethyl)pyrrolidin-3-yl(methyl)carbamate] | 1 to 10 |
| CCCCCOc1ccc(Nc2nc(CN3CCN(Cc4ccccn4)CC3)cs2)cc1F [compound 281, N-(3-fluoro-4-(pentyloxy)phenyl)-4-((4-(pyridin-2-ylmethyl)piperiazin-1-yl)methyl)thiazol-2-amine] | < 1 |
